Reference: patent US20070128217A1 (priority 2003, published 2007)

How the values were obtained:
[1] = test system: recombinant human anti-SARS-CoV antibody 03-018; type: binding; set-up: Binding of antibody 03-018 to linear peptides of the N protein of SARS-CoV Urbani / Binding of antibody 03-018 to looped/cyclic peptides of the N protein of SARS-CoV Urbani: unit not given here
[2] = test system: rabbit serum obtained by immunizing a rabbit with the SARS-CoV strain Frankfurt 1; type: binding; set-up: Binding of a rabbit serum to linear peptides / Binding of a rabbit serum to looped peptides / Rabbit serum linear peptides / Rabbit serum looped peptides / Binding of a rabbit serum to linear peptides of protein N of SARS-CoV Urbani (Rabbit serum linear peptides) / Binding of a rabbit serum to looped/cyclic peptides of protein N of SARS-CoV Urbani (Rabbit serum looped peptides): unit not given here
[3] = test system: antibodies in sera from SARS patients (sera 1a, 1b, 2, 6, 37, 62, London, SARS-yellow, SARS-green); type: binding, human; set-up: Binding of serum 6 to linear peptides of protein X1 of SARS-CoV Urbani / Binding of serum 37 to linear peptides of protein X1 of SARS-CoV Urbani / Binding of serum 6 to looped/cyclic peptide (PEPSCAN-ELISA) / Binding of serum 37 to looped/cyclic peptide (PEPSCAN-ELISA) / Binding of serum 37 to looped/cyclic peptides of protein X1 of SARS-CoV Urbani / Binding of serum 6 to linear peptides of protein X2 / Binding of serum 37 to linear peptides of protein X2 / Binding of serum 37 to looped/cyclic peptides of protein X2 of SARS-CoV Urbani / Binding of serum 6 to linear peptides of protein M of SARS-CoV Urbani / Binding of serum 37 to linear peptides of protein M of SARS-CoV Urbani / Binding of serum 6 to looped/cyclic peptides of protein M of SARS-CoV Urbani / Binding of serum 37 to looped/cyclic peptides of protein M of SARS-CoV Urbani / Binding of serum 6 to linear peptides of protein X3 of SARS-CoV Urbani / Binding of serum 37 to linear peptides of protein X3 of SARS-CoV Urbani / Binding of serum 37 to looped/cyclic peptides of protein X3 of SARS-CoV Urbani / Binding of serum 6 to linear peptides of protein X4 of SARS-CoV Urbani / Binding of serum 37 to linear peptides of protein X4 of SARS-CoV Urbani / Binding of serum 37 to looped/cyclic peptides of protein X4 of SARS-CoV Urbani / Binding of serum 6 to linear peptides of protein X5 of SARS-CoV Urbani / Binding of serum 37 to linear peptides of protein X5 of SARS-CoV Urbani / Binding of serum 37 to looped/cyclic peptides of protein X5 of SARS-CoV Urbani / Binding of serum 6 to linear peptides of protein N of SARS-CoV Urbani / Binding of serum 37 to linear peptides of protein N of SARS-CoV Urbani / Binding of serum 6 to linear peptide (PEPSCAN-ELISA) / Binding of serum 1a to looped/cyclic peptides of protein N of SARS-CoV Urbani / Binding of serum 1b to looped/cyclic peptides of protein N of SARS-CoV Urbani / Binding of serum 2 to looped/cyclic peptides of protein N of SARS-CoV Urbani / Binding of serum 6 to looped/cyclic peptides of protein N of SARS-CoV Urbani / Binding of serum 37 to looped/cyclic peptides of protein N of SARS-CoV Urbani / Binding of serum 62 to looped/cyclic peptides of protein N of SARS-CoV Urbani / Binding of serum London to looped/cyclic peptides of protein N of SARS-CoV Urbani / Binding of serum SARS-green to looped/cyclic peptides of protein N of SARS-CoV Urbani: unit not given here
[4] = test system: control sera (pooled serum of ten healthy LUMC hospital workers; commercial negative donor pooled serum from the Dutch bloodbank); type: binding, human; set-up: Binding of Control serum LUMC to linear peptides / Binding of Control serum Blood-bank to linear peptides / Binding of Control serum LUMC to looped peptides / Binding of Control Serum Blood-Bank to Looped peptides / Binding of Control serum LUMC to linear peptides of the protein M of SARS-CoV Urbani / Binding of Control serum Blood-bank to linear peptides of the protein M of SARS-CoV Urbani / Binding of Control serum LUMC to looped peptides of the protein M of SARS-CoV Urbani / Binding of Control Serum Blood-Bank to Looped peptides of the protein M of SARS-CoV Urbani: unit not given here

PQIAQFAPSASAFFG
Binding of antibody 03-018 to linear peptides of the N protein of SARS-CoV Urbani [1]: 0.1
Binding of antibody 03-018 to looped/cyclic peptides of the N protein of SARS-CoV Urbani [1]: 0.2
Binding of a rabbit serum to linear peptides of protein N of SARS-CoV Urbani (Rabbit serum linear peptides) [2]: 0.1
Binding of a rabbit serum to looped/cyclic peptides of protein N of SARS-CoV Urbani (Rabbit serum looped peptides) [2]: 0.5
Binding of serum 1a to linear peptides of protein N of SARS-CoV Urbani [3]: 0.2
Binding of serum 1a to looped/cyclic peptides of protein N of SARS-CoV Urbani [3]: 0.4
Binding of serum 1b to linear peptides of protein N of SARS-CoV Urbani [3]: 0.1
Binding of serum 1b to looped/cyclic peptides of protein N of SARS-CoV Urbani [3]: 0.3
Binding of serum 2 to linear peptides of protein N of SARS-CoV Urbani [3]: 0.2
Binding of serum 2 to looped/cyclic peptides of protein N of SARS-CoV Urbani [3]: 0.4
Binding of serum 6 to linear peptides of protein N of SARS-CoV Urbani [3]: 0.1
Binding of serum 6 to looped/cyclic peptides of protein N of SARS-CoV Urbani [3]: 0.3
Binding of serum 37 to linear peptides of protein N of SARS-CoV Urbani [3]: 0.6
Binding of serum 37 to looped/cyclic peptides of protein N of SARS-CoV Urbani [3]: 0.7
Binding of serum 62 to linear peptides of protein N of SARS-CoV Urbani [3]: 0.6
Binding of serum 62 to looped/cyclic peptides of protein N of SARS-CoV Urbani [3]: 0.7
Binding of serum London to linear peptides of protein N of SARS-CoV Urbani [3]: 0.5
Binding of serum London to looped/cyclic peptides of protein N of SARS-CoV Urbani [3]: 0.5
Binding of serum SARS-green to linear peptides of protein N of SARS-CoV Urbani [3]: 0.6
Binding of serum SARS-green to looped/cyclic peptides of protein N of SARS-CoV Urbani [3]: 0.4
Binding of serum SARS-yellow to linear peptides of protein N of SARS-CoV Urbani [3]: 0.6
Binding of serum SARS-yellow to looped/cyclic peptides of protein N of SARS-CoV Urbani [3]: 0.5
Control Serum Blood-Bank Looped peptides [4]: 0.8
Control serum Blood-bank linear peptides [4]: 0.7
Control serum LUMC linear peptides [4]: 0.5
Control serum LUMC looped peptides [4]: 0.7

PRWYFYYLGTGPEAS
Binding of antibody 03-018 to linear peptides of the N protein of SARS-CoV Urbani [1]: 0.1
Binding of antibody 03-018 to looped/cyclic peptides of the N protein of SARS-CoV Urbani [1]: 0.2
Binding of a rabbit serum to linear peptides of protein N of SARS-CoV Urbani (Rabbit serum linear peptides) [2]: 0.2
Binding of a rabbit serum to looped/cyclic peptides of protein N of SARS-CoV Urbani (Rabbit serum looped peptides) [2]: 0.6
Binding of serum 1a to linear peptides of protein N of SARS-CoV Urbani [3]: 0.3
Binding of serum 1a to looped/cyclic peptides of protein N of SARS-CoV Urbani [3]: 0.4
Binding of serum 1b to linear peptides of protein N of SARS-CoV Urbani [3]: 0.2
Binding of serum 1b to looped/cyclic peptides of protein N of SARS-CoV Urbani [3]: 0.3
Binding of serum 2 to linear peptides of protein N of SARS-CoV Urbani [3]: 0.2
Binding of serum 2 to looped/cyclic peptides of protein N of SARS-CoV Urbani [3]: 0.5
Binding of serum 6 to linear peptides of protein N of SARS-CoV Urbani [3]: 0.2
Binding of serum 6 to looped/cyclic peptides of protein N of SARS-CoV Urbani [3]: 0.3
Binding of serum 37 to linear peptides of protein N of SARS-CoV Urbani [3]: 0.9
Binding of serum 37 to looped/cyclic peptides of protein N of SARS-CoV Urbani [3]: 1.0
Binding of serum 62 to linear peptides of protein N of SARS-CoV Urbani [3]: 0.7
Binding of serum 62 to looped/cyclic peptides of protein N of SARS-CoV Urbani [3]: 0.8
Binding of serum London to linear peptides of protein N of SARS-CoV Urbani [3]: 0.5
Binding of serum London to looped/cyclic peptides of protein N of SARS-CoV Urbani [3]: 0.5
Binding of serum SARS-green to linear peptides of protein N of SARS-CoV Urbani [3]: 0.5
Binding of serum SARS-green to looped/cyclic peptides of protein N of SARS-CoV Urbani [3]: 0.9
Binding of serum SARS-yellow to linear peptides of protein N of SARS-CoV Urbani [3]: 0.6
Binding of serum SARS-yellow to looped/cyclic peptides of protein N of SARS-CoV Urbani [3]: 0.8
Binding of Control Serum Blood-Bank to Looped peptides [4]: 0.7
Binding of Control serum Blood-bank to linear peptides [4]: 0.7
Binding of Control serum LUMC to linear peptides [4]: 0.6
Binding of Control serum LUMC to looped peptides [4]: 0.7

PSGTWLTYHGAIKLD
Binding of antibody 03-018 to linear peptides of the N protein of SARS-CoV Urbani [1]: 0.1
Binding of antibody 03-018 to looped/cyclic peptides of the N protein of SARS-CoV Urbani [1]: 0.2
Binding of a rabbit serum to linear peptides of protein N of SARS-CoV Urbani (Rabbit serum linear peptides) [2]: 0.1
Binding of a rabbit serum to looped/cyclic peptides of protein N of SARS-CoV Urbani (Rabbit serum looped peptides) [2]: 0.0
Binding of serum 1a to linear peptides of protein N of SARS-CoV Urbani [3]: 0.3
Binding of serum 1a to looped/cyclic peptides of protein N of SARS-CoV Urbani [3]: 0.2
Binding of serum 1b to linear peptides of protein N of SARS-CoV Urbani [3]: 0.2
Binding of serum 1b to looped/cyclic peptides of protein N of SARS-CoV Urbani [3]: 0.1
Binding of serum 2 to linear peptides of protein N of SARS-CoV Urbani [3]: 0.2
Binding of serum 2 to looped/cyclic peptides of protein N of SARS-CoV Urbani [3]: 0.2
Binding of serum 6 to linear peptides of protein N of SARS-CoV Urbani [3]: 0.2
Binding of serum 6 to looped/cyclic peptides of protein N of SARS-CoV Urbani [3]: 0.1
Binding of serum 37 to linear peptides of protein N of SARS-CoV Urbani [3]: 1.0
Binding of serum 37 to looped/cyclic peptides of protein N of SARS-CoV Urbani [3]: 0.4
Binding of serum 62 to linear peptides of protein N of SARS-CoV Urbani [3]: 0.8
Binding of serum 62 to looped/cyclic peptides of protein N of SARS-CoV Urbani [3]: 0.3
Binding of serum London to linear peptides of protein N of SARS-CoV Urbani [3]: 0.7
Binding of serum London to looped/cyclic peptides of protein N of SARS-CoV Urbani [3]: 0.3
Binding of serum SARS-green to linear peptides of protein N of SARS-CoV Urbani [3]: 0.6
Binding of serum SARS-green to looped/cyclic peptides of protein N of SARS-CoV Urbani [3]: 0.1
Binding of serum SARS-yellow to linear peptides of protein N of SARS-CoV Urbani [3]: 0.7
Binding of serum SARS-yellow to looped/cyclic peptides of protein N of SARS-CoV Urbani [3]: 0.1
Control Serum Blood-Bank Looped peptides [4]: 0.4
Control serum Blood-bank linear peptides [4]: 0.7
Control serum LUMC linear peptides [4]: 0.6
Control serum LUMC looped peptides [4]: 0.4

PYGANKEGIVWVATE
Binding of antibody 03-018 to linear peptides of the N protein of SARS-CoV Urbani [1]: 0.1
Binding of antibody 03-018 to looped/cyclic peptides of the N protein of SARS-CoV Urbani [1]: 0.2
Binding of a rabbit serum to linear peptides of protein N of SARS-CoV Urbani (Rabbit serum linear peptides) [2]: 0.2
Binding of a rabbit serum to looped/cyclic peptides of protein N of SARS-CoV Urbani (Rabbit serum looped peptides) [2]: 0.2
Binding of serum 1a to linear peptides of protein N of SARS-CoV Urbani [3]: 0.3
Binding of serum 1a to looped/cyclic peptides of protein N of SARS-CoV Urbani [3]: 0.4
Binding of serum 1b to linear peptides of protein N of SARS-CoV Urbani [3]: 0.2
Binding of serum 1b to looped/cyclic peptides of protein N of SARS-CoV Urbani [3]: 0.3
Binding of serum 2 to linear peptides of protein N of SARS-CoV Urbani [3]: 0.2
Binding of serum 2 to looped/cyclic peptides of protein N of SARS-CoV Urbani [3]: 0.5
Binding of serum 6 to linear peptides of protein N of SARS-CoV Urbani [3]: 0.2
Binding of serum 6 to looped/cyclic peptides of protein N of SARS-CoV Urbani [3]: 0.3
Binding of serum 37 to linear peptides of protein N of SARS-CoV Urbani [3]: 1.0
Binding of serum 37 to looped/cyclic peptides of protein N of SARS-CoV Urbani [3]: 0.9
Binding of serum 62 to linear peptides of protein N of SARS-CoV Urbani [3]: 0.8
Binding of serum 62 to looped/cyclic peptides of protein N of SARS-CoV Urbani [3]: 0.9
Binding of serum London to linear peptides of protein N of SARS-CoV Urbani [3]: 0.7
Binding of serum London to looped/cyclic peptides of protein N of SARS-CoV Urbani [3]: 0.5
Binding of serum SARS-green to linear peptides of protein N of SARS-CoV Urbani [3]: 0.8
Binding of serum SARS-green to looped/cyclic peptides of protein N of SARS-CoV Urbani [3]: 0.8
Binding of serum SARS-yellow to linear peptides of protein N of SARS-CoV Urbani [3]: 0.6
Binding of serum SARS-yellow to looped/cyclic peptides of protein N of SARS-CoV Urbani [3]: 0.7
Binding of Control Serum Blood-Bank to Looped peptides [4]: 0.6
Binding of Control serum Blood-bank to linear peptides [4]: 0.7
Binding of Control serum LUMC to linear peptides [4]: 0.7
Binding of Control serum LUMC to looped peptides [4]: 0.7
